≈ marks a conversion by molar mass, not a printed value.
Molecular target: T1, lipase
T1 construct: gene PNLIP; pig pancreas is only the usual preparation
Assay: 4-nitrophenyl butyrate hydrolysis, absorbance at […] nm
Format: biochemical
Details: potassium phosphate pH 7.0, 37 °C, 10 min, standard drug, covalent

SMILES: CCCCCCCCCCC[C@@H](C[C@@H]1OC(=O)[C@H]1CCCCCC)OC(=O)[C@H](CC(C)C)NC=O [Orlistat]
- IC50: 6.4 µg/mL (≈ 12.9 µM)
